Data published in paper PMC7222207, “Characterization of a CholesteroNitrone (ISQ-201), a Novel Drug Candidate for the Treatment of Ischemic Stroke” (Antioxidants, 2020).

Tests used:
[1] = tested on: transient forebrain ischemia, hippocampal CA1 and cortical neurons; assay: Global cerebral ischemia (4VO), neuronal apoptosis by TUNEL assay; format: in vivo, male Wistar rats; parameters: maximum neuroprotection (Emax), TUNEL assay: dose or concentration left out as unconfirmed; settings: for maximum neuroprotection (Emax), TUNEL assay: iv at reperfusion onset
Description: Transient forebrain ischemia was induced in adult male Wistar rats (10–12 weeks, Charles River) by the standard four-vessel occlusion model (4VO) described previously. Briefly, both vertebral arteries were irreversibly occluded by electrocoagulation under anesthesia, with a mixture of atropine, ketamine, and diazepam (0.25, 62.5, and 5 mg/kg, respectively) delivered through intraperitoneal injection. After 24 h, ischemia was induced by carotid occlusion with atraumatic clips, for 15 min, and then the clips were removed from the carotid arteries to allow reperfusion. Body temperature was maintained at 37 °C during the surgical procedure. The animals were studied after 5 days of reperfusion (R5d) after which they were sacrificed. Sham control animals were prepared in the same way, without carotid occlusion. We performed a power analysis (http://www.biomath.info/power/ttest.htm) to determine the sample size. Significance level and statistical power were set at 0.05 and 0.8 (80%), respectively, which afforded a sample size of […] subjects per group. The treatments were administered with concealed allocation, and in randomized order, according to a computer-generated randomization program. Ischemic animals were treated with a vehicle solution (saline/ethanol, 90:10 vol/vol) or nitrone ISQ-201, dissolved in a vehicle solution through a single intravenous tail injection, when the carotid arteries were unclamped for reperfusion. In therapeutic window experiments, the animals were treated once at the reperfusion onset or at the set reperfusion time points, after ischemia. For the administration, at 6 h and 48 h of reperfusion after ischemia, the animals were anesthetized with isoflurane for 2–3 min and 5 min, respectively, prior to the treatment administration. An independent researcher prepared the treatments for each animal, according to the randomization schedule. Data of each experimental group were normalized to each vehicle control group. All procedures associated with animal experiments were approved by the Animal Care Ethics Committee of the Hospital Universitario Ramón y Cajal (Madrid, Spain, code no. 06/2015) and were performed according to the ARRIVE guidelines.
After 5 days of reperfusion (R5d), the animals were euthanized by transcardiac perfusion, under deep anesthesia. A washout step with 200 mL of saline via the left ventricle was followed by a fixation with 4% (w/v) paraformaldehyde solution in PBS. Brains were then removed and post-fixed in the same solution, overnight at 4 °C, sequentially washed with 10%, 20%, and 30% (w/v) sucrose in PBS, and embedded in Tissue-Tek O.C.T. (Sakura Finetek), before freezing at −80 °C. Brain coronal sections containing the hippocampus were obtained by cryostat sectioning at the level of interaural line +5.7 ± 0.2 mm on real capillary gap microscope slides (Dako).
Apoptotic neurons within the brain sections were detected by using the Terminal deoxynucleotidyl transferase-mediated dUTP Nick-End Labeling (TUNEL) assay (Promega). For this test, 5-µm-thick coronal cryostat brain sections containing the dorsal hippocampal formation were obtained, as described above, and post-fixed with 4% formaldehyde in PBS for 5 min, at room temperature. After washing in PBS for three times, the sections were permeabilized with 0.1 M sodium citrate, pH 6.0, for 1 min at 95 °C, then quickly cooled in ice and washed in PBS for 5 min at room temperature. […]

[2] = tested on: transient forebrain ischemia; assay: Global cerebral ischemia (4VO), neurological deficit score (NDS); format: in vivo, male Wistar rats; settings: evaluated at 5 days
Description: Transient forebrain ischemia was induced in adult male Wistar rats (10–12 weeks, Charles River) by the standard four-vessel occlusion model (4VO) described previously. Briefly, both vertebral arteries were irreversibly occluded by electrocoagulation under anesthesia, with a mixture of atropine, ketamine, and diazepam (0.25, 62.5, and 5 mg/kg, respectively) delivered through intraperitoneal injection. After 24 h, ischemia was induced by carotid occlusion with atraumatic clips, for 15 min, and then the clips were removed from the carotid arteries to allow reperfusion. Body temperature was maintained at 37 °C during the surgical procedure. The animals were studied after 5 days of reperfusion (R5d) after which they were sacrificed. Sham control animals were prepared in the same way, without carotid occlusion. We performed a power analysis (http://www.biomath.info/power/ttest.htm) to determine the sample size. Significance level and statistical power were set at 0.05 and 0.8 (80%), respectively, which afforded a sample size of <6 subjects per group. […]
Neurological deficits in rats subjected to global cerebral ischemia were blindly evaluated after 5 days of reperfusion (R5d). […]
In order to quantify potential functional impairments, the general state of the animals was assessed. […]

[3] = tested on: transient middle cerebral artery occlusion; assay: Transient focal cerebral ischemia (tMCAO), grip strength test; format: in vivo, male C57BL/6 mice; settings: mice, 0.05 mg/kg or 0.1 mg/kg ip at onset of reperfusion, 24 and 48 h after treatment
Description: Transient occlusion of the distal branch of the middle cerebral artery (tMCAO) was induced in male C57BL/6 mice (9–11 weeks old, Charles River), as described previously. Mice were anesthetized with 4% isoflurane for induction and 1.5–2% isoflurane for maintenance (in 79% N2/21% O2). After drilling a small hole on the temporal bone at the level of the distal portion of the middle cerebral artery (MCA), the artery was compressed for 60 min, with a 30-G needle by using a micromanipulator. Body temperature was maintained between 36.5–37.5 °C and cerebral blood flow was monitored using laser-Doppler flowmetry to confirm MCA occlusion. Buprenorphine (0.05–0.1 mg/kg) was administered subcutaneously immediately before the procedure. A total of 33 mice were subjected to tMCAO, according to the study design. A power analysis was performed to determine the sample size (significance level set at 0.05, and the power set at 0.8 (80%)), which identified the need for 8 mice to be included in each experimental group. […]
Neurobehavioral studies were performed to evaluate ischemic outcomes and monitor motor function after focal ischemia. […] A total of six trials were conducted for each test and the strength value (expressed in grams) was calculated as the mean of all six trials.

[4] = tested on: lipid peroxidation and ROS levels; parameters: method as in PMID 26241908; settings: preliminary results; cited from earlier work

## CC(C)[C@H]1CC[C@H]2[C@@H]3CCC4=C/C(=[N+](\C)[O-])CC[C@]4(C)[C@H]3CC[C@]12C [ISQ-201]
[1]; 0.05 mg/kg iv given at 48 h postreperfusion, evaluated at 5 days
  cell apoptosis vs vehicle, therapeutic window: did not show significant differences
[1]; 0.05 mg/kg iv given up to and including 6 h postreperfusion, hippocampal and cortical regions, evaluated at 5 days
  apoptosis-positive cells vs vehicle, therapeutic window: significantly reduced
[1]; 0.05 and 0.1 mg/kg iv at reperfusion onset, CA1 and cortical regions, 5 days of reperfusion
  apoptotic cells vs vehicle group: significant reduction
[1]; cortex, most potent concentration, 5 days of reperfusion
  maximum neuroprotection (Emax), TUNEL assay: 81%
[1]; hippocampal CA1, most potent concentration, 5 days of reperfusion
  maximum neuroprotection (Emax), TUNEL assay: 35%
[2]; 0.05 mg/kg iv given after 48 h of reperfusion
  neurological deficit score (NDS) vs vehicle: could not improve
[2]; 0.05 mg/kg iv given between 0 and 6 h of post-reperfusion
  neurological deficit score (NDS) vs vehicle: improvement
[3]
  motor deficit (grip strength) vs vehicle: significant decrease
[4]
  effect on lipid peroxidation and ROS levels: decreased
